pEC50: −log10 of the molar value.
Experiments:
ΔF508-CFTR [1] = biological target: T1, ΔF508-CFTR (Homo sapiens, UniProt P13569, DEL508-508); assay: CFTR cell surface levels using HRP-tagged ΔF508-CFTR expressing CFBE cells, intrinsic corrector capacity; assay type: cell-based; design: % Activation: concentration or dose not given beside the values; conditions: HRP-tagged ΔF508-CFTR expressing CFBE41o- cells, compound alone (intrinsic corrector capacity), 20 hours at 33° C.; for pEC50: read-out: EC50
T1 construct: host or cells: CFBE41o-, doxycycline-inducible
In short: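 Surface ΔF508-CFTR was measured as HRP chemiluminescence from an extracellular-loop-4 tag, expressed as percent activity between DMSO and a […] corrector control.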

ΔF508-CFTR [2] = biological target: T1, ΔF508-CFTR; assay: CFTR cell surface levels using HRP-tagged ΔF508-CFTR expressing CFBE cells, in the presence of a co-corrector; assay type: cell-based; conditions: HRP-tagged ΔF508-CFTR CFBE cells, in the presence of 3 μM co-corrector; for pEC50: read-out: EC50
In short: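 Chemiluminescent read-out of surface HRP (15 min, dark) after PBS washes. Activity is normalized as 100×(sample−DMSO)/(3 μM co-corrector alone−DMSO).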

T1 sequence (P13569 with tags, fused parts or gaps DEL508-508): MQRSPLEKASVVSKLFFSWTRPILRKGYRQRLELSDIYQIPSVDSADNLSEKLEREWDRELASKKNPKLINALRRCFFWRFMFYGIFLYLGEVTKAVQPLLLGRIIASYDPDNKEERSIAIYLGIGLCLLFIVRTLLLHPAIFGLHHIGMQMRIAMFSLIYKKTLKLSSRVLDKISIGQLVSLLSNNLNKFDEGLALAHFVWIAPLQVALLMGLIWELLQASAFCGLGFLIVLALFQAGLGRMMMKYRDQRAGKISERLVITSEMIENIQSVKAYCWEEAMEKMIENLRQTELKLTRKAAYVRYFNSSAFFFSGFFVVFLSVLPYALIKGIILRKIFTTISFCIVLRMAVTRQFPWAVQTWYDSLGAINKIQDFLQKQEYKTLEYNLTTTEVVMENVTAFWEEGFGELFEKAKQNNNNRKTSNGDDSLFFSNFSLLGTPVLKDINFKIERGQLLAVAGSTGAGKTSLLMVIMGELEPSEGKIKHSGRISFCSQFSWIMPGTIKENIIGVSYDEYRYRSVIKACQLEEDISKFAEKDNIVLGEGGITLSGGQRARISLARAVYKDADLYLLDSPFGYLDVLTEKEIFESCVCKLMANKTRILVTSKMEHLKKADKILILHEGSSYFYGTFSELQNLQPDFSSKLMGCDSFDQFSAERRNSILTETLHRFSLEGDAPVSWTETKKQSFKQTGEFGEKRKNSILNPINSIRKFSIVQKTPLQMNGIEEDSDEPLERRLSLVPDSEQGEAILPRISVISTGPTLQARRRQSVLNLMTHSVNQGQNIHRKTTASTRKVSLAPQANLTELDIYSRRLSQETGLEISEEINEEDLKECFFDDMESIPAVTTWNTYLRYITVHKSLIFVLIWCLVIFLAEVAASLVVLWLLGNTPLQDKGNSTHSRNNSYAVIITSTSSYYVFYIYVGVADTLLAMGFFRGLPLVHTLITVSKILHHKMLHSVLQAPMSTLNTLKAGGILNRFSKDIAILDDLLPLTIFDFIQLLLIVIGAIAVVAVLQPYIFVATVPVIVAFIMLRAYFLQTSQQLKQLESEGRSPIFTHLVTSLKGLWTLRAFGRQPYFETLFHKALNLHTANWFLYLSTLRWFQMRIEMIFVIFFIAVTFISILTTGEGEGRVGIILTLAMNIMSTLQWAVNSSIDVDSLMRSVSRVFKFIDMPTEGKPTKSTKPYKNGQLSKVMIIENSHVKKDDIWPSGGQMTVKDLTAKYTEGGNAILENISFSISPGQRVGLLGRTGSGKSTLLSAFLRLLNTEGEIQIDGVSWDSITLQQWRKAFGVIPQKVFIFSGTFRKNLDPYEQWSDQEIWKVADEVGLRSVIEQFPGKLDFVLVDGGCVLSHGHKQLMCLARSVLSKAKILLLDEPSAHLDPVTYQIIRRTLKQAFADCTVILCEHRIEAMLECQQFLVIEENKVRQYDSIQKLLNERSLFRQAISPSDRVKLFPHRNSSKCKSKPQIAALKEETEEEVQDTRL

Row | Structure (SMILES) | % Activation (ΔF508-CFTR [1]) [%] | pEC50 (ΔF508-CFTR [1]) | % Activation (ΔF508-CFTR [2]) [%] | pEC50 (ΔF508-CFTR [2])
1 | CC(C)c1nn(-c2cccc(N(C)C)c2)c2nc(C(=O)NS(C)(=O)=O)cc(-c3cnc(N4CCOCC4)nc3)c12 [Compound 59, 1-[3-(dimethylamino)phenyl]-N-(methanesulfonyl)-4-[2-(morpholin-4-yl)pyrimidin-5-yl]-3-(propan-2-yl)-1H-pyrazolo[3,4-b]pyridine-6-carboxamide] | 317.3 | 6.11 | 534.8 | 6.32
2 | Cc1nn(-c2ccccc2)c2nc(C(=O)NS(C)(=O)=O)cc(-c3ccc(N4CCOCC4)nc3)c12 [Compound 37, N-(methanesulfonyl)-3-methyl-4-[6-(morpholin-4-yl)pyridin-3-yl]-1-phenyl-1H-pyrazolo[3,4-b]pyridine-6-carboxamide] | 222.85 | 5.78 | 457.25 | 5.93
3 | Cc1nn(-c2cccc(C(F)(F)F)c2)c2nc(C(=O)NS(C)(=O)=O)cc(-c3ccc(N4CCOCC4)cc3)c12 [Compound 8, N-(methanesulfonyl)-3-methyl-4-[4-(morpholin-4-yl)phenyl]-1-[3-(trifluoromethyl)phenyl]-1H-pyrazolo[3,4-b]pyridine-6-carboxamide] | 270.6 | 6.05 | 441.85 | 6.07
4 | COCC1CCN(c2cc(C(=O)NS(=O)(=O)C3CCNC3)nc3c2c(C2CCC2)nn3-c2ccccc2)CC1 (stereo not shown) [Compound 387, 3-cyclobutyl-4-[4-(methoxymethyl)piperidin-1-yl]-1-phenyl-N-(pyrrolidine-3-sulfonyl)-1H-pyrazolo[3,4-b]pyridine-6-carboxamide] | 60.58 | 6.34 | 168.9 | 6.79
5 | CC(C)OC1CCN(c2cc(C(=O)NS(C)(=O)=O)nc3c2c(C2CCC2)nn3-c2ccccc2)CC1 [Compound 151, 3-cyclobutyl-N-(methanesulfonyl)-1-phenyl-4-{4-[(propan-2-yl)oxy]piperidin-1-yl}-1H-pyrazolo[3,4-b]pyridine-6-carboxamide] | 228.95 | 6.46 | 387.15 | 6.96
6 | COCC1CCN(c2cc(C(=O)NS(C)(=O)=O)nc3c2c(C(C)C)nn3-c2ccc(=O)n(C)n2)CC1 [Compound 268, N-(methanesulfonyl)-4-[4-(methoxymethyl)piperidin-1-yl]-1-(1-methyl-6-oxo-1,6-dihydropyridazin-3-yl)-3-(propan-2-yl)-1H-pyrazolo[3,4-b]pyridine-6-carboxamide] | 5.213 | < 5.00 | 122.05 | < 5.00
7 | COCC1CCN(Cc2cc(C(=O)NS(=O)(=O)N(C)C)nc3c2c(C2CCC2)nn3-c2ccc(F)cc2)CC1 [Compound 521, 3-cyclobutyl-N-(dimethylsulfamoyl)-1-(4-fluorophenyl)-4-{[4-(methoxymethyl)piperidin-1-yl]methyl}-1H-pyrazolo[3,4-b]pyridine-6-carboxamide] | 31.93 |  | 217.3 | 6.15
8 | CS(=O)(=O)NC(=O)c1cc(N2CCC(N3CCOCC3)CC2)c2c(C3CCC3)nn(-c3ccnc(C4CCOCC4)c3)c2n1 [Compound 490, 3-cyclobutyl-N-(methanesulfonyl)-4-[4-(morpholin-4-yl)piperidin-1-yl]-1-[2-(oxan-4-yl)pyridin-4-yl]-1H-pyrazolo[3,4-b]pyridine-6-carboxamide] | 139.7 | 5.81 | 303.9 | 6.16
9 | CCS(=O)(=O)NC(=O)c1cc(N2CCC(COC)CC2)c2c(C3CCC3)nn(-c3ccccc3)c2n1 [Compound 403, 3-cyclobutyl-N-(ethanesulfonyl)-4-[4-(methoxymethyl)piperidin-1-yl]-1-phenyl-1H-pyrazolo[3,4-b]pyridine-6-carboxamide] | 389.2 | 7.52 | 507.35 | 7.59
10 | CS(=O)(=O)NC(=O)c1cc(N2CC3(CCCCC3)C2)c2c(C3CCC3)nn(-c3ccccc3)c2n1 [Compound 192, 4-(2-azaspiro[3.5]nonan-2-yl)-3-cyclobutyl-N-(methanesulfonyl)-1-phenyl-1H-pyrazolo[3,4-b]pyridine-6-carboxamide] | 81.49 | 5.95 | 254.6 | 6.06
11 | CN(C)S(=O)(=O)NC(=O)c1cc(N2CCC(N3CCCC(C(F)(F)F)C3)CC2)c2c(C3CCC3)nn(-c3ccc(F)cc3)c2n1 (stereo not shown) [Compound 571, 3-cyclobutyl-N-(dimethylsulfamoyl)-1-(4-fluorophenyl)-4-[3-(trifluoromethyl)[1,4'-bipiperidin]-1'-yl]-1H-pyrazolo[3,4-b]pyridine-6-carboxamide] | 268.15 | 6.89 | 487.9 | 7.11
12 | COCCS(=O)(=O)NC(=O)c1cc(N2CCC(COC)CC2)c2c(C3CCC3)nn(-c3ccccc3)c2n1 [Compound 256, 3-cyclobutyl-N-(2-methoxyethanesulfonyl)-4-[4-(methoxymethyl)piperidin-1-yl]-1-phenyl-1H-pyrazolo[3,4-b]pyridine-6-carboxamide] | 331.85 |  | 508.63 | 
13 | COC1CCCN(C2CCN(c3cc(C(=O)NS(=O)(=O)N(C)C)nc4c3c(C3CCC3)nn4-c3ccc(F)cc3)CC2)C1 (stereo not shown) [Compound 572, 3-cyclobutyl-N-(dimethylsulfamoyl)-1-(4-fluorophenyl)-4-(3-methoxy[1,4'-bipiperidin]-1'-yl)-1H-pyrazolo[3,4-b]pyridine-6-carboxamide] | 237.55 | 6.53 | 412.9 | 6.65
14 | COC1CCN(C2CCN(c3cc(C(=O)NS(=O)(=O)N(C)C)nc4c3c(C3CCC3)nn4-c3ccc(F)cc3)CC2)C1 (stereo not shown) [Compound 524, 3-cyclobutyl-N-(dimethylsulfamoyl)-1-(4-fluorophenyl)-4-[4-(3-methoxypyrrolidin-1-yl)piperidin-1-yl]-1H-pyrazolo[3,4-b]pyridine-6-carboxamide] | 209.35 | 6.28 | 398.75 | 6.51
15 | COCCN(C)c1ccc(-c2cc(C(=O)NS(C)(=O)=O)nc3c2c(C(C)C)nn3-c2cccc(N3CCOCC3)c2)cc1 [Compound 88, N-(methanesulfonyl)-4-{4-[(2-methoxyethyl)(methyl)amino]phenyl}-1-[3-(morpholin-4-yl)phenyl]-3-(propan-2-yl)-1H-pyrazolo[3,4-b]pyridine-6-carboxamide] | 389.73 | 6.32 | 546.2 | 6.38
16 | CN(C)S(=O)(=O)NC(=O)c1cc(OCC2CCN(C3CCCCC3)CC2)c2c(C3CCC3)nn(-c3ccc(F)cc3)c2n1 [Compound 618, 3-cyclobutyl-4-[(1-cyclohexylpiperidin-4-yl)methoxy]-N-(dimethylsulfamoyl)-1-(4-fluorophenyl)-1H-pyrazolo[3,4-b]pyridine-6-carboxamide] | 112.8 | 6.38 | 295.9 | 6.15
